Results on 9 compounds are retold here after patent US10364256B2 (GlaxoSmithKline Intellectual Property Development Limited, priority 2015, dated 2019).

pIC50: −log10 of the molar value.

Broadly, the pIC50 is the negative decadic logarithm of the IC50, by convention in mol/L.

The target of test [1] is T1, Keap1 Kelch domain (321-609) / TAMRA-labeled 16mer NRF2 peptide (ETGE motif) (Homo sapiens, UniProt Q14145).
T1 construct: the Kelch domain (321-609) of Keap1 is used
In words: NRF2-Keap1 FP Assay (Keap1 Kelch fluorescence polarization). The format is binding. The settings on record: 20 nM Keap1 (321-609), 8 nM Tamra labeled peptide. Summed up:
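Compound dilutions (3-fold) were incubated 1 hr at room temperature with 20 nM Keap1 Kelch (321-609) and 8 nM TAMRA-labeled ETGE 16mer peptide. Buffer was 50 mM Tris pH 8.0, 100 mM NaCl, 5 mM MgCl2, 1 mM DTT, 2 mM CHAPS, 0.005% BSA. Fluorescence polarization (mP) was normalized to controls and fitted with a four-parameter equation to give pIC50.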
(In general: In fluorescence polarisation assays a small probe gives low polarisation when free and higher when bound to something large.)

Test [2] concerns the target T2, full length Keap1 protein / full length NRF2 protein (Homo sapiens, UniProt Q14145).
T2 construct: full length NRF2 protein and full length Keap1 protein (Keap1 exists a dimer) are used; His
The test can be described thus: NRF2-Keap1 TR-FRET Assay. The settings on record: 25 nM Keap1-FlagHis and 50 nM biotin-NRF2 added. In kind it is binding. Summed up:
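Full-length Keap1-FlagHis preincubated with compound 2.25 h at 37 °C, then biotin-NRF2 added for 1.25 h at 4 °C, in Tris pH 8.0 with MgCl2, NaCl, BSA, DTT, CHAPS. TR-FRET 665/615 nm ratio normalised to with- and without-protein 1% DMSO controls; pIC50 from four-parameter fit.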
A general note: TR-FRET usually uses a lanthanide donor and a delayed reading to cut background.

T1 sequence (Q14145 321-609): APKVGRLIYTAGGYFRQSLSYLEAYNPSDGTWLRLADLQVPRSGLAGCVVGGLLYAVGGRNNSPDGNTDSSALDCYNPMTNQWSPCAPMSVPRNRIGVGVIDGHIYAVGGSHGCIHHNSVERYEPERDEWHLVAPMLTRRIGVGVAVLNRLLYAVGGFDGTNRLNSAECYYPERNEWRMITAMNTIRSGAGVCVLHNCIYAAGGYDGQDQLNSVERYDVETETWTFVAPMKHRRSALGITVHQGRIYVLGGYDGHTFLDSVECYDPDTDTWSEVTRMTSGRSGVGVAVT
T2 sequence (Q14145 whole entry): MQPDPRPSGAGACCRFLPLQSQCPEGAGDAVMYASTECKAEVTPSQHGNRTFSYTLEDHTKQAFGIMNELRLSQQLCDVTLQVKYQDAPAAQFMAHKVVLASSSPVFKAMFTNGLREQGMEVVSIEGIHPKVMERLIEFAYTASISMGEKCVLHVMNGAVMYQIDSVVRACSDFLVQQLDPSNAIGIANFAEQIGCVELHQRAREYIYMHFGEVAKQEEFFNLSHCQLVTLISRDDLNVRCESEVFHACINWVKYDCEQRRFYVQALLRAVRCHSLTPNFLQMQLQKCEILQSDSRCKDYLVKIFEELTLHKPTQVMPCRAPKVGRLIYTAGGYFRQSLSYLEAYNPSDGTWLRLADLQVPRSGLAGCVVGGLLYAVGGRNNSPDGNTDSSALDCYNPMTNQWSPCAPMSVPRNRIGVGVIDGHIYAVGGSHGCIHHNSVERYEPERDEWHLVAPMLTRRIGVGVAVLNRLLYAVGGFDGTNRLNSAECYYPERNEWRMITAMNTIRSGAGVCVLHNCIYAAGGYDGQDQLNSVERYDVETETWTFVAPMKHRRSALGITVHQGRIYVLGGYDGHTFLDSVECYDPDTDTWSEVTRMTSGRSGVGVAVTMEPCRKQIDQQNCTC

As to `CC(Oc1cccc(-c2cccc(-n3ncc(C(=O)O)c3[C@H]3C[C@@H]3c3cn(C)nn3)c2)c1)c1cccc(-c2ccccc2)c1` (mixture of isomers) [Example 239, 1-(3′-(1-([1,1′-Biphenyl]-3-yl)ethoxy)-[1,1′-biphenyl]-3-yl)-5-((1,2-trans)-2-(1-methyl-1H-1,2,3-triazol-4-yl)cyclopropyl)-1H-pyrazole-4-carboxylic Acid], the negative logarithm of the IC50 (pIC50) in test [1] and in test [2] was 6.00 to 7.00 throughout.

Consider `Cn1cc([C@@H]2C[C@H]2c2c(C(=O)O)cnn2-c2cccc(-c3cccc(OCC4CCCC(C(F)(F)F)C4)c3)c2)nn1` (mixture of isomers) [Example 147, 5-((1,2-trans)-2-(1-Methyl-1H-1,2,3-triazol-4-yl)cyclopropyl)-1-(3′-((3-(trifluoromethyl)cyclohexyl)methoxy)-[1,1′-biphenyl]-3-yl)-1H-pyrazole-4-carboxylic acid], for which the pIC50 in test [1] and in test [2] was 6.00 to 7.00 in each case.

`CCC[C@@H]1CCCCN1C(=O)c1cccc(-c2cc(Cl)cc(-n3ncc(C(=O)O)c3C3CC3c3cn(C)nn3)c2)c1` (stereo partly drawn) [Example 160, 1-(5-Chloro-3′-((R)-2-propylpiperidine-1-carbonyl)-[1,1′-biphenyl]-3-yl)-5-(2-(1-methyl-1H-1,2,3-triazol-4-yl)cyclopropyl)-1H-pyrazole-4-carboxylic Acid Compound with 2,2,2-trifluoroacetic Acid (1:1)]: the pIC50 in test [1] and in test [2] was 7.00 to 8.00 in each case.

As to `COC1CCCCC1COc1cccc(-c2cccc(-n3ncc(C(=O)O)c3[C@H]3C[C@@H]3c3cn(C)nn3)c2)c1` (mixture of isomers) [Example 177, 1-(3′-((2-Methoxycyclohexyl)methoxy)-[1,1′-biphenyl]-3-yl)-5-((1,2-trans)-2-(1-methyl-1H-1,2,3-triazol-4-yl)cyclopropyl)-1H-pyrazole-4-carboxylic acid], the pIC50 in test [1] and in test [2] was 6.00 to 7.00 throughout.

For `Cn1cc(C2CC2c2c(C(=O)O)cnn2-c2cccc(-c3cccc(C(=O)CC4CCCCC4)c3)c2)nn1` (stereo not drawn) [Example 215, 1-(3′-(2-Cyclohexylacetyl)-[1,1′-biphenyl]-3-yl)-5-(2-(1-methyl-1H-1,2,3-triazol-4-yl)cyclopropyl)-1H-pyrazole-4-carboxylic Acid], the pIC50 in test [1] is 7.00 to 8.00; in test [2], 6.00 to 7.00.

Take `COC(CC1CCCCC1)c1cccc(-c2cccc(-n3ncc(C(=O)O)c3C3CC3c3cn(C)nn3)c2)c1` (stereo not drawn) [Example 216, 1-(3′-(2-Cyclohexyl-1-methoxyethyl)-[1,1′-biphenyl]-3-yl)-5-(2-(1-methyl-1H-1,2,3-triazol-4-yl)cyclopropyl)-1H-pyrazole-4-carboxylic Acid]: the pIC50 was 7.00 to 8.00 in test [1] and 6.00 to 7.00 in test [2].

Regarding `CCCC1CCCCN1C(=O)c1cccc(-c2cccc(-n3ncc(C(=O)O)c3C3CC3)c2)c1F` (stereo not drawn) [Example 17, 5-Cyclopropyl-1-{3-[2-fluoro-3-(2-propylpiperidine-1-carbonyl)phenyl]phenyl}-1H-pyrazole-4-carboxylic Acid], the figures for the pIC50 in test [1] and in test [2] were 7.00 to 8.00 and 6.00 to 7.00, respectively.

For the compound `O=C(O)c1cnn(-c2cccc(-c3cccc(-n4ncc5c4CCC5)c3)c2)c1C1CC1` [Example 61, 5-Cyclopropyl-1-(3′-(5,6-dihydrocyclopenta[c]pyrazol-1(4H)-yl)-[1,1′-biphenyl]-3-yl)-1H-pyrazole-4-carboxylic Acid], the pIC50 is 6.00 to 7.00 in test [1] and 5.00 to 6.00 in test [2].

For the compound `COC(c1cccc(-c2cccc(-n3ncc(C(=O)O)c3C3CC3c3cn(C)nn3)c2)c1)C1CCCCC1` (stereo not drawn) [Example 244, 1-(3′-(Cyclohexyl(methoxy)methyl)-[1,1′-biphenyl]-3-yl)-5-(2-(1-methyl-1H-1,2,3-triazol-4-yl)cyclopropyl)-1H-pyrazole-4-carboxylic acid], the pIC50 is 7.00 to 8.00 in test [1] and 6.00 to 7.00 in test [2].
